Experimental data reported in patent US8034602B2 (priority 2006, dated 2011).

System: mutant strain CJR0500
Test: Flask fermentation with tryptophan added to fermentation medium
Assay type: cell-based, Corynebacterium glutamicum
Settings: 50 mg/L tryptophan in fermentation medium, 30° C., 64 hrs, shaking

In the case of N[C@@H](Cc1c[nH]c2ccccc12)C(=O)O [Tryptophan, L-tryptophan], the “Effect of tryptophan addition on growth” value is reported as “stimulate the growth”.
